From the supplement of paper PMC6045584

How the values were obtained:
Test in all cases: area under dose-response curve of surviving fraction (unscaled, Aref=0) (surviving fraction x log10(nM)); higher = more resistant
Conditions in all cases: exposure time: 5 days; dose range 0.5-1000 nM
VISMODEGIB = compound: CS(=O)(=O)c1ccc(C(=O)Nc2ccc(Cl)c(-c3ccccn3)c2)c(Cl)c1 [VISMODEGIB]
In short: (§1)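 Tumour cell lines in 384-well plates were exposed for five days to eight inhibitor concentrations from 0.5 to 1000 nM. Viability was read by CellTiter-Glo luminescence, normalised to DMSO-only wells, in three screens per line. Dose-response survival curves were fitted to surviving fractions by 3-parameter logistic regression in the drc R package. Area under the curve is the unscaled activity area (Aref = 0) over log10 dose.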

FLAVOPIRIDOL = compound: CN1CC[C@H](c2c(O)cc(O)c3c(=O)cc(-c4ccccc4Cl)oc23)[C@H](O)C1 [FLAVOPIRIDOL]
In short: as §1

RESVERATROL = compound: Oc1ccc(/C=C/c2cc(O)cc(O)c2)cc1 [RESVERATROL]
In short: as §1

FLUOROURACIL = compound: O=c1[nH]cc(F)c(=O)[nH]1 [FLUOROURACIL]
In short: as §1

NUTLIN3 = compound: COc1ccc(C2=N[C@@H](c3ccc(Cl)cc3)[C@@H](c3ccc(Cl)cc3)N2C(=O)N2CCNC(=O)C2)c(OC(C)C)c1 [NUTLIN3]
In short: as §1

LAPATINIB = compound: CS(=O)(=O)CCNCc1ccc(-c2ccc3ncnc(Nc4ccc(OCc5cccc(F)c5)c(Cl)c4)c3c2)o1 [LAPATINIB]
In short: as §1

SALINOMYCIN = compound: CC[C@@H](C(=O)[C@@H](C)[C@@H](O)[C@H](C)[C@@H]1O[C@@H]([C@@H](CC)C(=O)O)CC[C@@H]1C)[C@H]1O[C@]2(C=C[C@@H](O)[C@]3(CC[C@@](C)([C@H]4CC[C@](O)(CC)[C@H](C)O4)O3)O2)[C@H](C)C[C@@H]1C [SALINOMYCIN]
In short: as §1

DOXORUBICIN = compound: COc1cccc2c1C(=O)c1c(O)c3c(c(O)c1C2=O)C[C@@](O)(C(=O)CO)C[C@@H]3O[C@H]1C[C@H](N)[C@H](O)[C@H](C)O1 [DOXORUBICIN]
In short: as §1

[1] = compound: CCN(CC)CCCCNc1ncc2cc(-c3cc(OC)cc(OC)c3)c(NC(=O)NC(C)(C)C)nc2n1
In short: as §1

DECITABINE = compound: Nc1ncn([C@H]2C[C@H](O)[C@@H](CO)O2)c(=O)n1 [DECITABINE]
In short: as §1

17-AAG = compound: C=CCNC1=C2C[C@@H](C)C[C@H](OC)[C@H](O)[C@@H](C)/C=C(\C)[C@H](OC(N)=O)[C@@H](OC)/C=C\C=C(/C)C(=O)NC(=CC1=O)C2=O [17-AAG]
In short: as §1

ABT-737 = compound: CN(C)CC[C@H](CSc1ccccc1)Nc1ccc(S(=O)(=O)NC(=O)c2ccc(N3CCN(Cc4ccccc4-c4ccc(Cl)cc4)CC3)cc2)cc1[N+](=O)[O-] [ABT-737]
In short: as §1

2-METHOXYESTRADIOL = compound: COc1cc2c(cc1O)CC[C@@H]1[C@@H]2CC[C@]2(C)[C@@H](O)CC[C@@H]12 [2-METHOXYESTRADIOL]
In short: as §1

Test System	area under dose-response curve (VISMODEGIB)	area under dose-response curve (FLAVOPIRIDOL)	area under dose-response curve (RESVERATROL)	area under dose-response curve (FLUOROURACIL)	area under dose-response curve (NUTLIN3)	area under dose-response curve (LAPATINIB)	area under dose-response curve (SALINOMYCIN)	area under dose-response curve (DOXORUBICIN)	area under dose-response curve [1]	area under dose-response curve (DECITABINE)	area under dose-response curve (17-AAG)	area under dose-response curve (ABT-737)	area under dose-response curve (2-METHOXYESTRADIOL)
22RV1 PROSTATE	3.35	2.35	3.4	3.25	3.26	3.42	2.38	1.31	3.33	2.81	2.24		
A549 LUNG	3.34	2.34	3.51	3.27	3.26	3.47	3.11	2.25	3.22	3.29	1.64	3.54	3.25
BT549 BREAST	2.93	2.02	3.52	2.98	3.68	3.45	2.75	1.41		2.69	1.1		3.02
C33A CERVIX	3.15	2.27	3.17	3.66	3.13	2.92	2.96	1.46	2.88	3.03		3.38	2.91
CADOES1 SOFT TISSUE	3.17	1.8	3.21	3.05	2.81		2.37	1.99	3.03	2.23	2.76	2.63	3.23
CAL51 BREAST	3.09	1.92	3.35	3.05	3.17	3.37	3.01	1.48	2.86	2.92	1.92	3.4	2.99
CAL72 BONE	3.17	2.13	3.49	3.25	3.61	3.63	3.12	1.9	2.46	3.26	2.63	3.52	3.18
CAL120 BREAST	3.26	2.14	3.3	3.16	3.14	3.34	2.03	1.87	2.73	3.03	1.76	3.33	3
CASKI CERVIX	3.06	1.76	3.22	3.05	3.23	2.48	2.37	0.836	3.09	2.1	1.32	3.24	3.06
COLO320DM LARGE INTESTINE	3.45	2.06	3.54	2.87	4.13	3.66	2.89	3.07	3.53	3.27	2.98	3.69	2.88
DU4475 BREAST	3.21	1.69	3.25	3.34	3.2	3.33	2.43	0.979	2.52	1.99	1.26	2.54	2.52
H23 LUNG	3.43	2.33	3.42	3.28	3.42	2.77		1.79	3.28	2.74	1.66	3.5	3.11
HCC78 LUNG	3.52	1.62		3.24	3.02	2.99	2.33	1.2	3.12	2.49	1.44		2.57
HCC1395 BREAST	2.48		3.66	3.24	3.79	3.36			2.85	4.02	3.19	3.99	3.84
HCC1806 BREAST	3.23	2.06	3.7	3.09	3.55	3.15	2.77	1.3	3.58	1.27	0.894	3.72	3.46
HCC1954 BREAST	2.26	1.99	3.7	2.96	3.64	2.76	2.46	1.78	3.28	4.03	0.46	3.03	2.85
HCT15 LARGE INTESTINE	3.26	2.01	3.39	2.73	3.38		2.74	2.07	3.28	3.19	1.85	3.46	2.65
HELA CERVIX	3.49	2.54	3.64	3.55	3.38	3.7	3.17	1.69	3.33	3.41	2.37	3.64	3.11
HOS BONE	3.34	2.29	3.43	3.19	3.43	3.45	2.44	1.25		3.22	2.31	3.45	3.21
HOSMNG BONE	3.19	2.35	2.77	3.41	3.48	3.02	3.21	2.25	3.33	3.51	2.42	3.05	3.07

Test System	area under dose-response curve (VISMODEGIB)	area under dose-response curve (FLAVOPIRIDOL)	area under dose-response curve (RESVERATROL)	area under dose-response curve (FLUOROURACIL)	area under dose-response curve (NUTLIN3)	area under dose-response curve (LAPATINIB)	area under dose-response curve (SALINOMYCIN)	area under dose-response curve (DOXORUBICIN)	area under dose-response curve [1]	area under dose-response curve (DECITABINE)	area under dose-response curve (17-AAG)	area under dose-response curve (ABT-737)	area under dose-response curve (2-METHOXYESTRADIOL)
HSSYII SYNOVIAL	2.83	2.06	3.27	3.07	2.98	3.2	2.22	0.844	2.02	2.67	2.27	2.95	2.57
HT1080 SOFT TISSUE	3.25	2.07	3.35	3.06	3.11	3.4	3.16	1.29	3.39	3.03	2.11		3.11
HU09 BONE	3.11	2.06	3.57	3.06	3.4	3.23	2.91	1.38	3.06	3.33	1.08	3.04	3.01
JIMT1 BREAST	3	2.19	3.4	3.03	3.38	3.27	2.96	2.21	3.25	2.86	1.58	3.44	3.13
MDAMB453 BREAST	3.16	2.12	3.63	3.14	3.54	3.21	3.04	2.24	3.28		1.3	3.59	3.02
MDAMB468 BREAST	3.19	2.15	3.56	2.83	3.39		3.08	2.09	3.27	2.63	2.41	3.62	3.5
RDES SOFT TISSUE		2.51	4.59	3.48	3.98	4.08	2.26	1.97	3.98	3.9	2.13	2.58	
S68 BREAST	3.02	2.32	3.12	2.83	3.12		2.67	1.32	3.23	2.84	0.636	3.67	3.07
SAOS2 BONE	3.12	2.19	4.04	2.91	3.66	3.95	3.15	1.85	3.79	3.06	1.66	3.87	
SCC003 HEADNECK	3.24	2.22	3.64	3.08	3.48	3.11	2.91	2.03	3.36	2.94	2.38	3.76	
SCC36 HEADNECK	2.89	2.3	3.87	2.79	3.65	2.91	2.7	1.98		3.08	1.66	3.58	
SCC47 HEADNECK	3.19	2.12	3.79	3.44	3.66		3.07	2.27	3.33		2.29	3.89	3.24
SCC90 HEADNECK	2.93	2.25		3.17	3.5	2.81	2.84	2.36	2.96	3.6	2.31	3.56	2.68
SG43 HEADNECK		2.35	2.91	3.27	2.8	2.24	3.03	1.71	3.03		1.77	2.77	2.84
SNU475 LIVER	3.06	2.33	3.3	3.03	3.32		2.58	2.22	3.01	3.4	1.66	3.39	3.26
SUM44 BREAST	3.11	2.36	3.94	3.15	3.26	3.72	3.22	2.59	3.27	3.87	2.02		
SUM149 BREAST	2.98	2.09	3.39	2.9	3.63	2.56	2.62	1.11		2.01	1.29	3.39	2.9
U2OS BONE	3.48	2.2	3.48	3.18	3.28		3.16	1.98	3	3.01	2.13	3.49	3.08
VP229 BREAST	3.65	2.08		2.98	3.5	3.02	2.4	2.61	3.78		1.93	3.82	3.43
YAMATO SYNOVIAL		2.38		3	4.58	4.08	2.25	2.03	3.96		2.65	4.34	3.05
